The molecules below were run on Echinochloa crus-galli (assay: Post-emergence test, weed control effect). Conditions: 504 h, Dose 300 g/ha, after 3 weeks, fresh weight inhibition, read-out: activity level of harmful plant destruction (growth inhibition rate), Echinochloa crus-galli.
Format: in vivo
Method in brief: (§1)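 Activity is expressed as a level from 0 (no effect) to 10 (plant dead), each step matching a further 10% fresh-weight inhibition, assessed 3 weeks post-treatment. Treatment: spray at 2-3 leaf stage of pot-grown plants, compound in acetone, Tween-80 and water with 80% vegetable oil methyl ester synergist at 1500 g/ha.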

| Structure (SMILES) | inhibition at 300 g/ha [%] |
| --- | --- |
| Oc1cc(C(F)(F)F)nnc1-c1cccnc1 [Compound 202] | 70 to 80 |
| C=CCOc1cc(C(F)(F)F)nnc1-c1ccccc1 [E, reference compound] | 0 |
| Oc1cc(C(F)(F)F)nnc1-c1ccnc(F)c1 [Compound 206] | 100 |
| Oc1cc(C(F)(F)F)nnc1-c1ccc(F)cc1 [Compound 32] | 100 |
| Oc1cc(C(F)(F)F)nnc1-c1cnc(F)c(Cl)c1 [Compound 1000] | 100 |

Each molecule was assayed on Rorippa indica (assay: Post-emergence test, weed control effect). Conditions: Dose 3000 g/ha, after 3 weeks.
Format: in vivo
Method in brief: as §1

| Structure (SMILES) | weed control effect (activity level), Rorippa indica |
| --- | --- |
| Oc1cc(C(F)(F)F)nnc1-c1cnc(F)c(Cl)c1 [Compound 1000] | 10 |

Same assay, conditions: Rorippa indica, 504 h, Dose 300 g/ha, after 3 weeks, fresh weight inhibition, read-out: activity level of harmful plant destruction (growth inhibition rate), Rorippa indica

| Structure (SMILES) | inhibition at 300 g/ha [%] |
| --- | --- |
| Oc1cc(C(F)(F)F)nnc1-c1cccnc1 [Compound 202] | 100 |
| C=CCOc1cc(C(F)(F)F)nnc1-c1ccccc1 [E, reference compound] | 0 to 20 |
| Oc1cc(C(F)(F)F)nnc1-c1ccnc(F)c1 [Compound 206] | 100 |
| Oc1cc(C(F)(F)F)nnc1-c1ccc(F)cc1 [Compound 32] | 100 |
| Oc1cc(C(F)(F)F)nnc1-c1cnc(F)c(Cl)c1 [Compound 1000] | 100 |

Same assay, conditions: dose 1000 g/ha, after 3 weeks

| Structure (SMILES) | weed control effect (activity level), Rorippa indica |
| --- | --- |
| Oc1cc(C(F)(F)F)nnc1-c1ccc(F)cc1 [Compound 32] | 10 |

Same assay, conditions: dose 2000 g/ha, after 3 weeks

| Structure (SMILES) | weed control effect (activity level), Rorippa indica |
| --- | --- |
| Oc1cc(C(F)(F)F)nnc1-c1cccnc1 [Compound 202] | 10 |
| Oc1cc(C(F)(F)F)nnc1-c1ccnc(F)c1 [Compound 206] | 10 |

What follows are molecules tested on Veronica polita (assay: Post-emergence test, weed control effect). Conditions: Dose 3000 g/ha, after 3 weeks.
Format: in vivo
Method in brief: as §1

| Structure (SMILES) | weed control effect (activity level), Veronica polita |
| --- | --- |
| Oc1cc(C(F)(F)F)nnc1-c1cnc(F)c(Cl)c1 [Compound 1000] | 10 |

Same assay, conditions: Veronica polita, 504 h, Dose 300 g/ha, after 3 weeks, fresh weight inhibition, read-out: activity level of harmful plant destruction (growth inhibition rate), Veronica polita

| Structure (SMILES) | inhibition at 300 g/ha [%] |
| --- | --- |
| Oc1cc(C(F)(F)F)nnc1-c1cccnc1 [Compound 202] | 80 to 90 |
| C=CCOc1cc(C(F)(F)F)nnc1-c1ccccc1 [E, reference compound] | 0 |
| Oc1cc(C(F)(F)F)nnc1-c1ccnc(F)c1 [Compound 206] | 100 |
| Oc1cc(C(F)(F)F)nnc1-c1ccc(F)cc1 [Compound 32] | 100 |
| Oc1cc(C(F)(F)F)nnc1-c1cnc(F)c(Cl)c1 [Compound 1000] | 100 |

Same assay, conditions: dose 1000 g/ha, after 3 weeks

| Structure (SMILES) | weed control effect (activity level), Veronica polita |
| --- | --- |
| Oc1cc(C(F)(F)F)nnc1-c1ccc(F)cc1 [Compound 32] | 10 |

Same assay, conditions: dose 2000 g/ha, after 3 weeks

| Structure (SMILES) | weed control effect (activity level), Veronica polita |
| --- | --- |
| Oc1cc(C(F)(F)F)nnc1-c1cccnc1 [Compound 202] | 10 |
| Oc1cc(C(F)(F)F)nnc1-c1ccnc(F)c1 [Compound 206] | 10 |

What follows are molecules tested on Setaria viridis (assay: Post-emergence test, weed control effect). Conditions: 504 h, Dose 300 g/ha, after 3 weeks, fresh weight inhibition, read-out: activity level of harmful plant destruction (growth inhibition rate), Setaria viridis.
Format: in vivo
Method in brief: as §1

| Structure (SMILES) | inhibition at 300 g/ha [%] |
| --- | --- |
| Oc1cc(C(F)(F)F)nnc1-c1cccnc1 [Compound 202] | 100 |
| C=CCOc1cc(C(F)(F)F)nnc1-c1ccccc1 [E, reference compound] | 0 |
| Oc1cc(C(F)(F)F)nnc1-c1ccnc(F)c1 [Compound 206] | 100 |
| Oc1cc(C(F)(F)F)nnc1-c1ccc(F)cc1 [Compound 32] | 100 |
| Oc1cc(C(F)(F)F)nnc1-c1cnc(F)c(Cl)c1 [Compound 1000] | 100 |

Each molecule was assayed on Amaranthus retroflexus (assay: Post-emergence test, weed control effect). Conditions: Dose 3000 g/ha, after 3 weeks.
Format: in vivo
Method in brief: as §1

| Structure (SMILES) | weed control effect (activity level), Amaranthus retroflexus |
| --- | --- |
| Oc1cc(C(F)(F)F)nnc1-c1cnc(F)c(Cl)c1 [Compound 1000] | 10 |

Same assay, conditions: dose 1000 g/ha, after 3 weeks

| Structure (SMILES) | weed control effect (activity level), Amaranthus retroflexus |
| --- | --- |
| Oc1cc(C(F)(F)F)nnc1-c1ccc(F)cc1 [Compound 32] | 10 |

Same assay, conditions: dose 2000 g/ha, after 3 weeks

| Structure (SMILES) | weed control effect (activity level), Amaranthus retroflexus |
| --- | --- |
| Oc1cc(C(F)(F)F)nnc1-c1cccnc1 [Compound 202] | 10 |
| Oc1cc(C(F)(F)F)nnc1-c1ccnc(F)c1 [Compound 206] | 10 |

What follows are molecules tested on Galium aparine (assay: Post-emergence test, weed control effect). Conditions: 504 h, Dose 300 g/ha, after 3 weeks, fresh weight inhibition, read-out: activity level of harmful plant destruction (growth inhibition rate), Galium aparine.
Format: in vivo
Method in brief: as §1

| Structure (SMILES) | inhibition at 300 g/ha [%] |
| --- | --- |
| Oc1cc(C(F)(F)F)nnc1-c1cccnc1 [Compound 202] | 100 |
| C=CCOc1cc(C(F)(F)F)nnc1-c1ccccc1 [E, reference compound] | 0 |
| Oc1cc(C(F)(F)F)nnc1-c1ccnc(F)c1 [Compound 206] | 100 |
| Oc1cc(C(F)(F)F)nnc1-c1ccc(F)cc1 [Compound 32] | 100 |
| Oc1cc(C(F)(F)F)nnc1-c1cnc(F)c(Cl)c1 [Compound 1000] | 100 |

What follows are molecules tested on Chenopodiaceae (assay: Post-emergence test, weed control effect). Conditions: 504 h, Dose 300 g/ha, after 3 weeks, fresh weight inhibition, read-out: activity level of harmful plant destruction (growth inhibition rate), Chenopodiaceae.
Format: in vivo
Method in brief: as §1

| Structure (SMILES) | inhibition at 300 g/ha [%] |
| --- | --- |
| Oc1cc(C(F)(F)F)nnc1-c1cccnc1 [Compound 202] | 100 |
| C=CCOc1cc(C(F)(F)F)nnc1-c1ccccc1 [E, reference compound] | 0 to 20 |
| Oc1cc(C(F)(F)F)nnc1-c1ccnc(F)c1 [Compound 206] | 100 |
| Oc1cc(C(F)(F)F)nnc1-c1ccc(F)cc1 [Compound 32] | 100 |
| Oc1cc(C(F)(F)F)nnc1-c1cnc(F)c(Cl)c1 [Compound 1000] | 100 |

Same assay, conditions: Dose 3000 g/ha, after 3 weeks

| Structure (SMILES) | weed control effect (activity level), Chenopodiaceae |
| --- | --- |
| Oc1cc(C(F)(F)F)nnc1-c1cnc(F)c(Cl)c1 [Compound 1000] | 10 |

Same assay, conditions: dose 1000 g/ha, after 3 weeks

| Structure (SMILES) | weed control effect (activity level), Chenopodiaceae |
| --- | --- |
| Oc1cc(C(F)(F)F)nnc1-c1ccc(F)cc1 [Compound 32] | 10 |

Same assay, conditions: dose 2000 g/ha, after 3 weeks

| Structure (SMILES) | weed control effect (activity level), Chenopodiaceae |
| --- | --- |
| Oc1cc(C(F)(F)F)nnc1-c1cccnc1 [Compound 202] | 10 |
| Oc1cc(C(F)(F)F)nnc1-c1ccnc(F)c1 [Compound 206] | 10 |
